# According to PMC6407594 (Journal of Enzyme Inhibition and Medicinal Chemistry, 2019):
# Read-outs that look alike come from different tables or passages of the source.
# Assays:
# murine SMOX [1] = molecular target: T1, murine SMOX (Mus musculus, UniProt Q99K82); assay: Inhibition of SMOX activity, spermine as substrate; assay type: biochemical; conditions: for SMOX Kmapp/Km0: 50 μM compound, relative to control
# murine PAOX = murine PAOX (Mus musculus, UniProt Q8C0L6); assay: Inhibition of PAOX activity, N1AcSPM as substrate; assay type: biochemical; conditions: for PAOX Kmapp/Km0: 50 μM compound, relative to control; for PAOX Kmapp: Km of N1AcSPM in the presence of 50 μM compound
# [2] = cited from earlier work
# SSAT = conditions: at a concentration of 10 μM; cited from earlier work
# ODC = conditions: at a concentration of 10 μM; cited from earlier work
# [3] = molecular target: PAOX activity in HT22 cells (Mus musculus, UniProt Q8C0L6); assay: PAOX activity in whole HT22 cells; assay type: cell-based
# murine SMOX [4] = molecular target: T1, murine SMOX; conditions: read-out: SMOX Ki; purified murine SMOX; cited from earlier work
# human MAO A = conditions: cited from earlier work
# MAOs = assay: Amine oxidase activity in HT22 cell lysate, tyramine as substrate; assay type: biochemical, mouse; conditions: tyramine 1 mM, after pre-incubation with inhibitor
# [5] = Km of SPM in the presence of 50 μM compound
# T1 sequence (Q99K82 whole entry): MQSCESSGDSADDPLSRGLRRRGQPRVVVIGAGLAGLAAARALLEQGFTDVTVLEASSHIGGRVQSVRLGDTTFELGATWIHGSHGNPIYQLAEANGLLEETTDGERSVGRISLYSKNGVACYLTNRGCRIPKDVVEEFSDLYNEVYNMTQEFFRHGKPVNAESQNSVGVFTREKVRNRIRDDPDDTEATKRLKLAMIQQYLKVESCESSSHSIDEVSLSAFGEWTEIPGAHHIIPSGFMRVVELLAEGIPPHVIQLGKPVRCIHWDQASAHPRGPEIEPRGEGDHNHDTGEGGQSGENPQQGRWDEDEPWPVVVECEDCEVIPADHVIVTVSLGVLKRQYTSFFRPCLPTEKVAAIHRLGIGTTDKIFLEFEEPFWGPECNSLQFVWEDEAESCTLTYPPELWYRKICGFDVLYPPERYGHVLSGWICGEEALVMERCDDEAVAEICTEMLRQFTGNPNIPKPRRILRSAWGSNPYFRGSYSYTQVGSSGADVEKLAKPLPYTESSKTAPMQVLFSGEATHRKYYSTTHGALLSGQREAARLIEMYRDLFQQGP
# Chain of murine PAOX (Q8C0L6 whole entry): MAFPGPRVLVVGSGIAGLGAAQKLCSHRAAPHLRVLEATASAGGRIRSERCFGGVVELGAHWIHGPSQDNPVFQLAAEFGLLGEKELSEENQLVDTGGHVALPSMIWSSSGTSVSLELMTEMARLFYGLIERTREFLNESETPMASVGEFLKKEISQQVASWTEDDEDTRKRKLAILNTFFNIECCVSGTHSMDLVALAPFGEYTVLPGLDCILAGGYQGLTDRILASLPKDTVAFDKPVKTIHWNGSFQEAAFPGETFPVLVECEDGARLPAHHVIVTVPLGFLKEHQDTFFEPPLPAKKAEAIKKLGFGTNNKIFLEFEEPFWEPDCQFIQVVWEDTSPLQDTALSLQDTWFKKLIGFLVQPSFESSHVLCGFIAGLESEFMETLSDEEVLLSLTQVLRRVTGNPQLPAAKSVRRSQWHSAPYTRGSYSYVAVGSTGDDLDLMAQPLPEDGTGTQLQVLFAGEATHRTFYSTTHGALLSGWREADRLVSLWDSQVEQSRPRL
# Chain of PAOX activity in HT22 cells (Q8C0L6 whole entry): as above
Compound,Ki (murine SMOX [1]) [µM],SMOX Kmapp/Km0 (murine SMOX [1]),SMOX Kmapp (murine SMOX [1]; [5]) [µM],PAOX Kmapp/Km0 (murine PAOX),PAOX Kmapp (murine PAOX) [µM],also measured
"[H]/N=C(\N/C(=N/[H])NCCCCCCNC(=N)NC(=N)Nc1ccc(Cl)cc1)Nc1ccc(Cl)cc1 [Chlorhexidine, chlorhexidine, reference compound]",3.8 ± 0.2,–,–,–,–,SMOX Kmapp (murine SMOX [1]): 1402 ± 124 µM
"c1ccc(CNCCCCCCCCCCCCNCc2ccccc2)cc1 [Compound 9, N1,N^12-dibenzyldodecanediamine]",–,2.3,1135 ± 141,108,41 ± 221,–
"COc1ccccc1CNCCCCCCNCCCCCCCCNCCCCCCNCc1ccccc1OC [Compound 10, Methoctramine]",1.2 ± 0.1,18,8940 ± 1600,–,–,Cytotoxicity [2]: low cytotoxicity; Effect on SSAT (SSAT): did not significantly affect; Mode of inhibition of SMOX (murine SMOX [1]; double reciprocal plots): competitive inhibitors; Effect on ODC (ODC): did not significantly affect; IC50 [3]: 0.16 ± 0.01 µM; IC50 in HT22 cells relative to Ki of recombinant enzyme ([3]; IC50/Ki): about 16 times; Ki (murine PAOX): 0.01 ± 0.0015 µM; Mode of inhibition of PAOX (murine PAOX; double reciprocal plots): competitive inhibitors
"COc1ccccc1CN(C)CCCCCC(=O)N(C)CCCCCCCCN(C)C(=O)CCCCCN(C)Cc1ccccc1OC [Compound 14, Caproctamine]",–,1.21,598 ± 156,112,43 ± 9,–
"NCCCCCCCCCCCCN [DIADO, 1,12-diaminododecane, reference compound]",–,1.2,600 ± 100,9,3.40 ± 0.26,Ki (murine SMOX [4]): > 1000 µM; Behaviour towards MAO A (human MAO A): excellent substrate
C#CCN(C)Cc1ccccc1 [pargyline],–,–,–,–,–,Activity with tyramine with respect to control sample (MAOs): 2%
